From ChEMBL document CHEMBL1140668, “Antifungal activity in triterpene glycosides from the sea cucumber Actinopyga lecanora” (2007)
Values after ≈ are worked out from the molar mass of the structure shown.

How the values were obtained:
[1] = test system: Trichophyton benhamiae; assay: Antifungal activity against Trichophyton mentagrophytes; assay type: functional, Arthroderma benhamiae
[2] = test system: Candida parapsilosis; assay: Antifungal activity against Candida parapsilosis ATCC 22019; assay type: functional; details: Lodderomyces parapsilosis
[3] = test system: Cryptococcus neoformans; assay: Antifungal activity against Cryptococcus neoformans; assay type: functional
[4] = test system: Aspergillus fumigatus; assay: Antifungal activity against Aspergillus fumigatus; assay type: functional
[5] = test system: Candida albicans; assay: Antifungal activity against Candida albicans; assay type: functional
[6] = test system: Sporothrix schenckii; assay: Antifungal activity against Sporothrix schenckii; assay type: functional
[7] = test system: Candida albicans; assay: Antifungal activity against Candida albicans ATCC 60193; assay type: functional
[8] = test system: Trichophyton rubrum; assay: Antifungal activity against Trichophyton rubrum MTCC 296; assay type: functional
[9] = test system: Candida albicans; assay: Antifungal activity against Candida albicans ATCC 66027; assay type: functional
[10] = test system: Candida albicans; assay: Antifungal activity against Candida albicans MTCC 227; assay type: functional
[11] = test system: Cryptococcus neoformans; assay: Antifungal activity against Cryptococcus neoformans ATCC 6603; assay type: functional
[12] = test system: Pichia kudriavzevii; assay: Antifungal activity against Candida krusei ATCC 6258; assay type: functional
[13] = test system: Cryptococcus neoformans; assay: Antifungal activity against Filobasidiella neoformans MTCC 1346; assay type: functional
[14] = test system: Candida albicans; assay: Antifungal activity against Candida albicans MTCC 183; assay type: functional
[15] = test system: Aspergillus flavus; assay: Antifungal activity against Aspergillus flavus; assay type: functional
[16] = test system: Penicillium ochrochloron; assay: Antifungal activity against Penicillium ochrochloron MTCC 517; assay type: functional
[17] = test system: Candida albicans; assay: Antifungal activity against Candida albicans ATCC 14053; assay type: functional
[18] = test system: Candida albicans; assay: Antifungal activity against Candida albicans ATCC 10231; assay type: functional
[19] = test system: Talaromyces funiculosus; assay: Antifungal activity against Penicillium funiculosum MTCC 287; assay type: functional
[20] = test system: Aspergillus terreus; assay: Antifungal activity against Aspergillus terreus IMI 235704; assay type: functional

Structure (SMILES)	MIC [1] [µg/mL]	MIC [2] [µg/mL]	MIC [3] [µg/mL]	MIC [4] [µg/mL]	MIC [5] [µg/mL]	MIC [6] [µg/mL]	MIC [7] [µg/mL]	MIC [8] [µg/mL]	MIC [9] [µg/mL]	MIC [10] [µg/mL]	MIC [11] [µg/mL]	MIC [12] [µg/mL]	MIC [13] [µg/mL]	MIC [14] [µg/mL]	MIC [15] [µg/mL]	MIC [16] [µg/mL]	MIC [17] [µg/mL]	MIC [18] [µg/mL]	MIC [19] [µg/mL]	MIC [20] [µg/mL]
CC(=O)O[C@H]1C[C@@]2(C)C3=CCC4C(C)(C)[C@@H](O[C@@H]5OC[C@@H](O)[C@H](O)[C@H]5O)CC[C@]4(C)C3CCC23C(=O)O[C@@](C)(CCCC(C)C)[C@@H]13 (some centres not stated)	25 (≈ 38.6 µM)	50 (≈ 77.3 µM)	25 (≈ 38.6 µM)	50 (≈ 77.3 µM)	50 (≈ 77.3 µM)	25 (≈ 38.6 µM)	–	–	–	–	–	–	–	–	–	–	–	–	–	–
OC(Cn1cncn1)(Cn1cncn1)c1ccc(F)cc1F [FLUCONAZOLE]	2 (≈ 6.53 µM)	1 (≈ 3.27 µM)	1 (≈ 3.27 µM)	2 (≈ 6.53 µM)	0.5 (≈ 1.63 µM)	1 (≈ 3.27 µM)	–	–	–	–	–	–	–	–	–	–	–	–	–	–
CO[C@@H]1[C@@H](O)[C@H](O[C@@H]2[C@@H](O)[C@H](O[C@H]3[C@H](O)[C@@H](O)[C@H](O[C@H]4[C@H](O[C@H]5CC[C@]6(C)C7=C[C@H](O)[C@@]89C(=O)O[C@@](C)(C%10CCC(C)(C)O%10)[C@@]8(O)CC[C@@]9(C)[C@@H]7CC[C@H]6C5(C)C)OC[C@@H](OS(=O)(=O)[O-])[C@@H]4O)O[C@@H]3C)O[C@H](CO)[C@H]2O)O[C@H](CO)[C@H]1O.[Na+] (some centres not stated) [HOLOTHURIN A]	25	–	25	50	50	25	–	–	–	–	–	–	–	–	–	–	–	–	–	–
C[C@H]1O[C@@H](O[C@H]2[C@H](O[C@H]3CC[C@]4(C)C5=C[C@H](O)C67C(=O)O[C@@](C)(C8CCC(C)(C)O8)[C@@]6(O)CC[C@@]7(C)[C@@H]5CCC4C3(C)C)OC[C@@H](OS(=O)(=O)[O-])[C@@H]2O)[C@H](O)[C@@H](O)[C@@H]1O.[Na+] (some centres not stated) [HOLOTHURIN B]	1.56	6.25	3.12	3.12	3.12	1.56	12.5	3.12	25	12.5	3.12	12.5	6.25	25	12.5	12.5	12.5	25	12.5	25
